In US8173638B2 (Boehringer Ingelheim International GmbH, priority 2006, dated 2012):
Like-named read-outs stand apart in the source and are kept apart here.

Molecular target: T1, human CB2R (Homo sapiens, UniProt P34972)
T1 construct: host or cells: CHO cells
Assay: CB2R mediated modulation of cAMP synthesis
Format: cell-based
Settings: for agonistic activity: found through the use of the described assays (CB2 agonists), qualitative statement; for Emax: 0.5 h, read-out: Agonist Efficacy (%)
Procedure, shortened: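 Forskolin (10 uM)-driven cAMP in human CB2R-expressing CHO cells, read with DiscoverX-XS kit after 30 min compound exposure at 37 °C, 1 mM IBMX, 0.25% BSA. 100% defined as forskolin cAMP relative to 1 uM CP55940 inhibition. Agonist EC50 via four-parameter logistic model.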

[1] = CHO cells expressing human CB2R, cAMP inhibited by 1 uM CP55940 defined as 100%

T1 sequence (P34972 whole entry): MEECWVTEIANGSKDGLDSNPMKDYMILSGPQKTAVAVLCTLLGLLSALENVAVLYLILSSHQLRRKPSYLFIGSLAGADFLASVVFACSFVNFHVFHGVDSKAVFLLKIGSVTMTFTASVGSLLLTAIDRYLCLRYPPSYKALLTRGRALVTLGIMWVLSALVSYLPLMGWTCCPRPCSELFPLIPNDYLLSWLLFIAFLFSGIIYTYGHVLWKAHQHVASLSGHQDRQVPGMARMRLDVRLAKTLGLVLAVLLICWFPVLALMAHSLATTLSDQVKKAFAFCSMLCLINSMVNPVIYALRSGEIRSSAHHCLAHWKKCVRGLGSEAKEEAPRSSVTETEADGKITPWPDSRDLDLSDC

## CCC(C)c1ccc(NC(=O)N2CCCN(C(=O)N3CCS(=O)(=O)CC3)CC2)cc1 (stereo not drawn) [4-(1,1-Dioxo-1λ^6-thiomorpholine-4-carbonyl)-[1,4]diazepane-1-carboxylic acid (4-sec-butyl-phenyl)-amide]
  agonistic activity: agonistic activity

## CCc1ccnc(NC(=O)N2CCCN(C(=O)C3CCOCC3)CC2)c1 [4-(Tetrahydro-pyran-4-carbonyl)-[1,4]diazepane-1-carboxylic acid (4-ethyl-pyridin-2-yl)-amide]
  agonistic activity: agonistic activity

## O=C(Nc1ccc2ccccc2c1)N1CCCN(C(=O)C2CCCC2)CC1 [4-Cyclopentanecarbonyl-[1,4]diazepane-1-carboxylic acid naphthalen-2-ylamide]
  agonistic activity: agonistic activity

## CC(C)(C)c1cc(NC(=O)N2CCCN(C(=O)C3CCCCC3)CC2)no1 [Compound 153, 4-Cyclohexanecarbonyl-[1,4]diazepane-1-carboxylic acid (5-tert-butyl-isoxazol-3-yl)-amide]
[1]
  Emax: 104%
read-out: hCB2 cAMP EC50
  EC50: 3.7 nM

## CC(C)(C)c1ccc(NC(=O)N2CCCN(C(=O)CC3CCCCC3)CC2)cc1 [4-(2-Cyclohexyl-acetyl)-[1,4]diazepane-1-carboxylic acid (4-tert-butyl-phenyl)-amide]
  agonistic activity: agonistic activity

## O=C(Nc1cc(Cl)cc(Cl)c1)N1CCCN(C(=O)C2CCCCC2)CC1 [4-Cyclohexanecarbonyl-[1,4]diazepane-1-carboxylic acid (3,5-dichloro-phenyl)-amide]
  agonistic activity: agonistic activity

## O=C(Nc1ccc2ccccc2c1)N1CCCN(C(=O)C2CCOCC2)CC1 [4-(Tetrahydro-pyran-4-carbonyl)-[1,4]diazepane-1-carboxylic acid naphthalen-2-ylamide]
  agonistic activity: agonistic activity

## N#Cc1ccc(C(=O)N2CCCN(C(=O)Nc3ccc4ccccc4c3)CC2)cc1 [Compound 88, 4-(4-Cyano-benzoyl)-[1,4]diazepane-1-carboxylic acid naphthalen-2-ylamide]
[1]
  Emax: 97%
read-out: hCB2 cAMP EC50
  EC50: 36 nM

## O=C(Nc1ccc(C(F)(F)F)cc1)N1CCCN(C(=O)c2ccc(C(F)(F)F)cc2)CC1 [Compound 127, 4-(4-Trifluoromethyl-benzoyl)-[1,4]diazepane-1-carboxylic acid (4-trifluomethyl-phenyl)-amide]
[1]
  Emax: 100%
read-out: hCB2 cAMP EC50
  EC50: 75 nM

## CC(C)(C)c1ccc(NC(=O)N2CCCN(C(=O)CN3CCSCC3)CC2)cc1 [Compound 121, 4-(2-Thiomorpholin-4-yl-acetyl)-[1,4]diazepane-1-carboxylic acid (4-tert-butyl-phenyl)-amide]
[1]
  Emax: 103%
read-out: hCB2 cAMP EC50
  EC50: 36 nM

## CCC(C)c1ccc(NC(=O)N2CCCN(C(=O)C3CCOCC3)CC2)nc1 (stereo not drawn) [Compound 196, 4-(Tetrahydro-pyran-4-carbonyl)-[1,4]diazepane-1-carboxylic acid (5-sec-butyl-pyridin-2-yl)-amide]
[1]
  Emax: 77%
read-out: hCB2 cAMP EC50
  EC50: 47 nM

## O=C(Nc1ccc(Cl)c(Cl)c1)N1CCCN(C(=O)C2CCCCC2)CC1 [4-Cyclohexanecarbonyl-[1,4]diazepane-1-carboxylic acid (3,4-dichloro-phenyl)-amide]
  agonistic activity: agonistic activity

## O=C(Nc1nc(-c2ccccc2)cs1)N1CCCN(C(=O)C2CCC(O)CC2)CC1 (stereo not drawn) [Compound 174, 4-(4-Hydroxy-cyclohexanecarbonyl)-[1,4]diazepane-1-carboxylic acid (4-phenyl-thiazol-2-yl)-amide]
  EC50: 43 nM
CHO
  Emax: 102%

## CC(C)c1ccc(NC(=O)N2CCCN(C(=O)CCC3CC3)CC2)cc1 [Compound 55, 4-(3-Cyclopropyl-propionyl)-[1,4]diazepane-1-carboxylic acid (4-isopropyl-phenyl)-amide]
[1]
  Emax: 105%
read-out: hCB2 cAMP EC50
  EC50: 89 nM

## O=C(CC1CCOCC1)N1CCCN(C(=O)Nc2ccc(C(F)(F)F)cc2)CC1 [4-(2-Tetrahydro-pyran-4-yl-acetyl)-[1,4]diazepane-1-carboxylic acid (4-trifluoromethyl-phenyl)-amide]
  agonistic activity: agonistic activity

## CC(C)c1ccc(NC(=O)N2CCCN(C(=O)CC(C)(C)C)CC2)cc1 [Compound 60, 4-(3,3-Dimethyl-butyryl)-[1,4]diazepane-1-carboxylic acid (4-isopropyl-phenyl)-amide]
  EC50: 78 nM
CHO
  Emax: 71%

## Cc1nc(NC(=O)N2CCCN(C(=O)C3CCOCC3)CC2)sc1C(C)(C)C [Compound 183, 4-(Tetrahydro-pyran-4-carbonyl)-[1,4]diazepane-1-carboxylic acid (5-tert-butyl-4-methyl-thiazol-2-yl)-amide]
[1]
  Emax: 100%
read-out: hCB2 cAMP EC50
  EC50: 18 nM

## CC(C)(C)CC(=O)N1CCCN(C(=O)Nc2ccc(C(C)(C)C)cc2)CC1 [4-(3,3-Dimethyl-butyryl)-[1,4]diazepane-1-carboxylic acid (4-tert-butyl-phenyl)-amide]
  agonistic activity: agonistic activity

## CC(C)(C)c1cnc(NC(=O)N2CCCN(C(=O)N3CCS(=O)(=O)CC3)CC2)s1 [4-(1,1-Dioxo-1λ^6-thiomorpholine-4-carbonyl)-[1,4]diazepane-1-carboxylic acid (5-tert-butyl-thiazol-2-yl)-amide]
  agonistic activity: agonistic activity

## CC(C)(C)c1ccc(NC(=O)N2CCCN(C(=O)c3ccc(C#N)cc3)CC2)cc1 [Compound 112, 4-(4-Cyano-benzoyl)-[1,4]diazepane-1-carboxylic acid (4-tert-butyl-phenyl)-amide]
[1]
  Emax: 109%
read-out: hCB2 cAMP EC50
  EC50: 19 nM

## C[C@@H]1CN(C(=O)N2CCCN(C(=O)Nc3cc(C(C)(C)C)on3)CC2)C[C@H](C)O1 [4-((2R,6S)-2,6-Dimethyl-morpholine-4-carbonyl)-[1,4]diazepane-1-carboxylic acid (5-tert-butyl-isoxazol-3-yl)-amide]
  agonistic activity: agonistic activity

## CC(C)(C)c1cc(NC(=O)N2CCCN(C(=O)N3CCSCC3)CC2)no1 [4-(Thiomorpholine-4-carbonyl)-[1,4]diazepane-1-carboxylic acid (5-tert-butyl-isoxazol-3-yl)-amide]
  agonistic activity: agonistic activity

## O=C(CC1CCOCC1)N1CCCN(C(=O)Nc2ccc(OC(F)(F)F)cc2)CC1 [4-(2-Tetrahydro-pyran-4-yl-acetyl)-[1,4]diazepane-1-carboxylic acid (4-trifluoromethoxy-phenyl)-amide]
  agonistic activity: agonistic activity

## COc1ccc(C(=O)N2CCCN(C(=O)Nc3ccc4ccccc4c3)CC2)cc1 [4-(4-Methoxy-benzoyl)-[1,4]diazepane-1-carboxylic acid naphthalen-2-ylamide]
  agonistic activity: agonistic activity

## CC(C)(C)c1cc(NC(=O)N2CCCN(C(=O)N3CCOCC3)CC2)on1 [4-(Morpholine-4-carbonyl)-[1,4]diazepane-1-carboxylic acid (3-tert-butyl-isoxazol-5-yl)-amide]
  agonistic activity: agonistic activity

## CC(C)(C)c1ccc(NC(=O)N2CCCN(C(=O)CN3CCCCC3)CC2)cc1 [4-(2-Piperidin-1-yl-acetyl)-[1,4]diazepane-1-carboxylic acid (4-tert-butyl-phenyl)-amide]
  agonistic activity: agonistic activity

## CC(C)c1ccc(NC(=O)N2CCCN(C(=O)CCC3CCCCC3)CC2)cc1 [4-(3-Cyclohexyl-propionyl)-[1,4]diazepane-1-carboxylic acid (4-isopropyl-phenyl)-amide]
  agonistic activity: agonistic activity

## CC(C)(C)C(=O)N1CCCN(C(=O)Nc2ccc3ccccc3c2)CC1 [4-(2,2-Dimethyl-propionyl)-[1,4]diazepane-1-carboxylic acid naphthalen-2-ylamide]
  agonistic activity: agonistic activity

## CC(C)CCC(=O)N1CCCN(C(=O)Nc2ccc3ccccc3c2)CC1 [4-(4-Methyl-pentanoyl)-[1,4]diazepane-1-carboxylic acid naphthalen-2-ylamide]
  agonistic activity: agonistic activity

## CC(C)(C)c1cc(NC(=O)N2CCCN(C(=O)NC3CCCC3)CC2)no1
  agonistic activity: agonistic activity

## CC(C)c1ccc(NC(=O)N2CCCN(C(=O)C3CCCCC3)CC2)cc1 [4-Cyclohexanecarbonyl-[1,4]diazepane-1-carboxylic acid (4-isopropyl-phenyl)-amide]
  agonistic activity: agonistic activity

## COC1CCN(C(=O)N2CCCN(C(=O)Nc3cc(C(C)(C)C)no3)CC2)CC1 [4-(4-Methoxy-piperidine-1-carbonyl)-[1,4]diazepane-1-carboxylic acid (3-tert-butyl-isoxazol-5-yl)-amide]
  agonistic activity: agonistic activity

## O=C(CC1CCCC1)N1CCCN(C(=O)Nc2ccc(Cl)cc2Cl)CC1 [4-(2-Cyclopentyl-acetyl)-[1,4]diazepane-1-carboxylic acid (2,4-dichloro-phenyl)-amide]
  agonistic activity: agonistic activity

## CC(C)(C)c1cc(NC(=O)N2CCCN(C(=O)C3CCCOC3)CC2)no1 (stereo not drawn) [4-(Tetrahydro-pyran-3-carbonyl)-[1,4]diazepane-1-carboxylic acid (5-tert-butyl-isoxazol-3-yl)-amide]
  agonistic activity: agonistic activity

## O=C(Nc1ccc2ccccc2c1)N1CCCN(C(=O)c2ccc(Cl)c(Cl)c2)CC1 [4-(3,4-Dichloro-benzoyl)-[1,4]diazepane-1-carboxylic acid naphthalen-2-ylamide]
  agonistic activity: agonistic activity

## O=C(Nc1cc(-c2ccccc2)no1)N1CCCN(C(=O)C2CCOCC2)CC1 [4-(Tetrahydro-pyran-4-carbonyl)-[1,4]diazepane-1-carboxylic acid (3-phenyl-isoxazol-5-yl)-amide]
  agonistic activity: agonistic activity

## O=C(CCC1CCCC1)N1CCCN(C(=O)Nc2ccc3ccccc3c2)CC1 [4-(3-Cyclopentyl-propionyl)-[1,4]diazepane-1-carboxylic acid naphthalen-2-ylamide]
  agonistic activity: agonistic activity

## CC(C)(C)c1cc(NC(=O)N2CCCN(C(=O)C3CCOC3)CC2)no1 (stereo not drawn) [4-(Tetrahydro-furan-3-carbonyl)-[1,4]diazepane-1-carboxylic acid (5-tert-butyl-isoxazol-3-yl)-amide]
  agonistic activity: agonistic activity
